In article PMC9898036, “VIP152 is a selective CDK9 inhibitor with pre-clinical in vitro and in vivo efficacy in chronic lymphocytic leukemia” (Leukemia, 2022):
Like-named read-outs stand apart in the source and are kept apart here.

Legend:
Assay in all cases: DiscoverX KINOMEscan kinase profiling (468 assays)
Assay type in all cases: binding
human kinome [1] = molecular target: human kinome (Homo sapiens, UniProt O00506); details: kinase YSK1 (Entrez STK25); compound concentration 1000 nM; read-out: Percent Control
Outline: (§1)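 DNA-tagged kinases competed for immobilized biotinylated ligands on streptavidin magnetic beads, with bound kinase quantified by qPCR. VIP152 in DMSO was tested against a DMSO control.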

human kinome [2] = molecular target: human kinome (Homo sapiens, UniProt O43318); details: kinase TAK1 (Entrez MAP3K7); compound concentration 1000 nM; read-out: Percent Control
Outline: as §1

human kinome [3] = molecular target: human kinome (Homo sapiens, UniProt P00533, DEL746-750); details: EGFR(E746-A750del); 100 nM; read-out: Percent Control
Outline: as §1

human kinome [4] = molecular target: human kinome (Homo sapiens, UniProt P07948); details: LYN; 100 nM; read-out: Percent Control
Outline: as §1

human kinome [5] = molecular target: human kinome (Homo sapiens, UniProt P10721, A829P); details: KIT(A829P); 100 nM; read-out: Percent Control
Outline: as §1

human kinome [6] = molecular target: human kinome (Homo sapiens, UniProt P10721, D816V); details: KIT(D816V); 100 nM; read-out: Percent Control
Outline: as §1

human kinome [7] = molecular target: human kinome (Homo sapiens, UniProt P11309); details: read-out: Percent Control
Chain of human kinome (Homo sapiens, UniProt P11309) (P11309 whole entry): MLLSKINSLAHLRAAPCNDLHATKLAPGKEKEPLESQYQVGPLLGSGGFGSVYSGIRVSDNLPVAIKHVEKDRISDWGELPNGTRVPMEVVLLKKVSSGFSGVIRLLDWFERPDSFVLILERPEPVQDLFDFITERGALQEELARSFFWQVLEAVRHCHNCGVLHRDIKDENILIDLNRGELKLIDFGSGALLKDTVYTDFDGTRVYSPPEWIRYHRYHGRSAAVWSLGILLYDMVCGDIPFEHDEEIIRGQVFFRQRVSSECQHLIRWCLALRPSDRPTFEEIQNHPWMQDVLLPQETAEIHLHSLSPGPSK
Outline: as §1

human kinome [8] = molecular target: human kinome (Homo sapiens, UniProt P16591); details: FER; 100 nM; read-out: Percent Control
Outline: as §1

human kinome [9] = molecular target: human kinome (Homo sapiens, UniProt P22607); details: FGFR3; 100 nM; read-out: Percent Control
Outline: as §1

human kinome [10] = molecular target: human kinome (Homo sapiens, UniProt P22694); details: read-out: Percent Control
Outline: as §1

human kinome [11] = molecular target: human kinome (Homo sapiens, UniProt P23458); details: 100 nM, read-out: Percent Control
Chain of human kinome (Homo sapiens, UniProt P23458) (P23458 whole entry): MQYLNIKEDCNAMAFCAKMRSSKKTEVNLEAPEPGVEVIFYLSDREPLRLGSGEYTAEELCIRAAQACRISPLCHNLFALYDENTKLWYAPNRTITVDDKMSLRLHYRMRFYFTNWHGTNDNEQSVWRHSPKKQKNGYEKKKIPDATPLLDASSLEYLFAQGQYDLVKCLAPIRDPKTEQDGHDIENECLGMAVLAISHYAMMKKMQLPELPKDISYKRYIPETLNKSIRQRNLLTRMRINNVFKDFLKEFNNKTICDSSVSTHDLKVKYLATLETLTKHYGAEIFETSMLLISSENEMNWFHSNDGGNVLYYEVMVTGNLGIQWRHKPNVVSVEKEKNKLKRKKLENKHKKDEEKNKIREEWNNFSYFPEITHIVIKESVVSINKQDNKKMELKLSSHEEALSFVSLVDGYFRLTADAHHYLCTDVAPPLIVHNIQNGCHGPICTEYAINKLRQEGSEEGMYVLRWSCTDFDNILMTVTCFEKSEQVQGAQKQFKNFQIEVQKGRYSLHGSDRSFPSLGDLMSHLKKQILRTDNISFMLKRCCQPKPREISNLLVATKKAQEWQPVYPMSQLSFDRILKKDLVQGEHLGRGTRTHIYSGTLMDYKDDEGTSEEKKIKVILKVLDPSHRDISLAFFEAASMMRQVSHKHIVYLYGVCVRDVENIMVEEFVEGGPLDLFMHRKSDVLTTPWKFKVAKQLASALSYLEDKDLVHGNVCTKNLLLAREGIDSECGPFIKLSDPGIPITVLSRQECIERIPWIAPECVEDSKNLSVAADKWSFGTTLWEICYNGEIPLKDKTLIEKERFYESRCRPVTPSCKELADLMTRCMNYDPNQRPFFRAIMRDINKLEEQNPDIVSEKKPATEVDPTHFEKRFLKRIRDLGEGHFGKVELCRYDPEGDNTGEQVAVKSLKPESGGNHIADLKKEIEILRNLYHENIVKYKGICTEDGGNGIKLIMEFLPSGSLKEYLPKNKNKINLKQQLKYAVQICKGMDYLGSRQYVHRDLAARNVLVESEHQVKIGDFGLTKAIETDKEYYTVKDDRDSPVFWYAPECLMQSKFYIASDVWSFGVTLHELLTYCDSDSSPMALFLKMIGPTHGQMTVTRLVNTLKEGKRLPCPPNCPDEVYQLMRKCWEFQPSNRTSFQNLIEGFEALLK
Outline: as §1

human kinome [12] = molecular target: human kinome (Homo sapiens, UniProt P36897); details: kinase TGFBR1 (Entrez TGFBR1); compound concentration 1000 nM; read-out: Percent Control
Outline: as §1

human kinome [13] = molecular target: human kinome (Homo sapiens, UniProt P42338); details: read-out: Percent Control
Chain of human kinome (Homo sapiens, UniProt P42338) (P42338 whole entry): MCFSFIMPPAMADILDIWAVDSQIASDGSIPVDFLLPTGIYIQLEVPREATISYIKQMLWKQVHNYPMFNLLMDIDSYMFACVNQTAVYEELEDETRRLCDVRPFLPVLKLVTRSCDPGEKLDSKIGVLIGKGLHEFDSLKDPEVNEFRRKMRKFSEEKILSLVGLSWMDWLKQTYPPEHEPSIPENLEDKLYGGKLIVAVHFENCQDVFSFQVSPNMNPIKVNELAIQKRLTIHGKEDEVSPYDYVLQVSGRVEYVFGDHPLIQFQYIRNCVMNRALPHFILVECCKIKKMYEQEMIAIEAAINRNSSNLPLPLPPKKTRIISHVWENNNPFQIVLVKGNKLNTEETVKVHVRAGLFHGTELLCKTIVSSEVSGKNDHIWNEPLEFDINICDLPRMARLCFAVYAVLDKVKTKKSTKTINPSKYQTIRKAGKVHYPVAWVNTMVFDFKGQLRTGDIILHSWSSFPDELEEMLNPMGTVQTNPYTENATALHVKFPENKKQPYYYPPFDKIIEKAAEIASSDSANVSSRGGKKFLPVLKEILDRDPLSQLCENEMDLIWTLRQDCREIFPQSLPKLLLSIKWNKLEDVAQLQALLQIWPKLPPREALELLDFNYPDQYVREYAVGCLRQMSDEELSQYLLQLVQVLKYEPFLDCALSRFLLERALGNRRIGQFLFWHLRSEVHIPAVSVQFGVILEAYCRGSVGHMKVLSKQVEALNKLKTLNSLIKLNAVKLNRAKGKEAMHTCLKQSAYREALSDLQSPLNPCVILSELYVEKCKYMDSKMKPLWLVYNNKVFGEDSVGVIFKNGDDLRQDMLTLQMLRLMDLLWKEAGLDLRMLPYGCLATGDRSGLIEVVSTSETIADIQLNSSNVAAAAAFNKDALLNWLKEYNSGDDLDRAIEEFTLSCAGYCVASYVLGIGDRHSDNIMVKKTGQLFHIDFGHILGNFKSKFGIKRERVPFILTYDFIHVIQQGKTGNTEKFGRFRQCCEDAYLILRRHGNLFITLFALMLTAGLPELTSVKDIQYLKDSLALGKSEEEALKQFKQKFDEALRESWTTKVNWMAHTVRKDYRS
Outline: as §1

human kinome [14] = molecular target: human kinome (Homo sapiens, UniProt Q13163); details: MEK5 (Entrez MAP2K5); 100 nM; read-out: Percent Control
Outline: as §1

human kinome [15] = molecular target: human kinome (Homo sapiens, UniProt Q13188); details: MST2 (Entrez STK3); 100 nM; read-out: Percent Control
Outline: as §1

human kinome [16] = molecular target: human kinome (Homo sapiens, UniProt Q15835); details: GRK1; 100 nM; read-out: Percent Control
Outline: as §1

human kinome [17] = molecular target: human kinome (Homo sapiens, UniProt Q16816); details: read-out: Percent Control
Chain of human kinome (Homo sapiens, UniProt Q16816) (Q16816 whole entry): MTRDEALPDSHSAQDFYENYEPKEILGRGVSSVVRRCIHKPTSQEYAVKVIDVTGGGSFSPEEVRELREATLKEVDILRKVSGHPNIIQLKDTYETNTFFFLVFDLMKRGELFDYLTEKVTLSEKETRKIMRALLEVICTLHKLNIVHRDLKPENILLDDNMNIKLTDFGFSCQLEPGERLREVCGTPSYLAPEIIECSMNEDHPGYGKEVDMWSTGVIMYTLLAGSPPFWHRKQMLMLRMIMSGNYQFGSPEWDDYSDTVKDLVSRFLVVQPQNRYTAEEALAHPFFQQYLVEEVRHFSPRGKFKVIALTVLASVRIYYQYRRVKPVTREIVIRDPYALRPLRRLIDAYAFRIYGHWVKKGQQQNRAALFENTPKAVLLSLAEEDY
Outline: as §1

human kinome [18] = molecular target: human kinome (Homo sapiens, UniProt Q8IVW4); details: CDKL3; 100 nM; read-out: Percent Control
Outline: as §1

human kinome [19] = molecular target: human kinome (Homo sapiens, UniProt Q8IY84); details: read-out: Percent Control
Chain of human kinome (Homo sapiens, UniProt Q8IY84) (Q8IY84 whole entry): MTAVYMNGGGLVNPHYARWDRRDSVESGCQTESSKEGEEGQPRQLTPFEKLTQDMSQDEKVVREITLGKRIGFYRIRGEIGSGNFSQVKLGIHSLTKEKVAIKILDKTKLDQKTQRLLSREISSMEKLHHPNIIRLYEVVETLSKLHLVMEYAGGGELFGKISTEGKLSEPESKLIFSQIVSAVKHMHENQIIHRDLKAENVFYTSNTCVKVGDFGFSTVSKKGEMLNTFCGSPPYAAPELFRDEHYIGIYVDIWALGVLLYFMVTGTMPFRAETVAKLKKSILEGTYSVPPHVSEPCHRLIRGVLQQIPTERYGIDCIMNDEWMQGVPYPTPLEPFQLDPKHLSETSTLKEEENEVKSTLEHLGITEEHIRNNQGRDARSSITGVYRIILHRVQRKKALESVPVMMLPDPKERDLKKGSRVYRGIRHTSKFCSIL
Outline: as §1

human kinome [20] = molecular target: human kinome (Homo sapiens, UniProt Q8IYT8); details: kinase ULK2 (Entrez ULK2); compound concentration 1000 nM; read-out: Percent Control
Outline: as §1

human kinome [21] = molecular target: human kinome (Homo sapiens, UniProt Q8N568); details: DCAMKL2 (Entrez DCLK2); 100 nM; read-out: Percent Control
Outline: as §1

human kinome [22] = molecular target: human kinome (Homo sapiens, UniProt Q8N5S9); details: CAMKK1; 100 nM; read-out: Percent Control
Outline: as §1

human kinome [23] = molecular target: human kinome (Homo sapiens, UniProt Q8WTQ7); details: GRK7; 100 nM; read-out: Percent Control
Outline: as §1

human kinome [24] = molecular target: human kinome (Homo sapiens, UniProt Q96BR1); details: kinase SGK3 (Entrez SGK3); compound concentration 1000 nM; read-out: Percent Control
Outline: as §1

human kinome [25] = molecular target: human kinome (Homo sapiens, UniProt Q9BZL6); details: read-out: Percent Control
Chain of human kinome (Homo sapiens, UniProt Q9BZL6) (Q9BZL6 whole entry): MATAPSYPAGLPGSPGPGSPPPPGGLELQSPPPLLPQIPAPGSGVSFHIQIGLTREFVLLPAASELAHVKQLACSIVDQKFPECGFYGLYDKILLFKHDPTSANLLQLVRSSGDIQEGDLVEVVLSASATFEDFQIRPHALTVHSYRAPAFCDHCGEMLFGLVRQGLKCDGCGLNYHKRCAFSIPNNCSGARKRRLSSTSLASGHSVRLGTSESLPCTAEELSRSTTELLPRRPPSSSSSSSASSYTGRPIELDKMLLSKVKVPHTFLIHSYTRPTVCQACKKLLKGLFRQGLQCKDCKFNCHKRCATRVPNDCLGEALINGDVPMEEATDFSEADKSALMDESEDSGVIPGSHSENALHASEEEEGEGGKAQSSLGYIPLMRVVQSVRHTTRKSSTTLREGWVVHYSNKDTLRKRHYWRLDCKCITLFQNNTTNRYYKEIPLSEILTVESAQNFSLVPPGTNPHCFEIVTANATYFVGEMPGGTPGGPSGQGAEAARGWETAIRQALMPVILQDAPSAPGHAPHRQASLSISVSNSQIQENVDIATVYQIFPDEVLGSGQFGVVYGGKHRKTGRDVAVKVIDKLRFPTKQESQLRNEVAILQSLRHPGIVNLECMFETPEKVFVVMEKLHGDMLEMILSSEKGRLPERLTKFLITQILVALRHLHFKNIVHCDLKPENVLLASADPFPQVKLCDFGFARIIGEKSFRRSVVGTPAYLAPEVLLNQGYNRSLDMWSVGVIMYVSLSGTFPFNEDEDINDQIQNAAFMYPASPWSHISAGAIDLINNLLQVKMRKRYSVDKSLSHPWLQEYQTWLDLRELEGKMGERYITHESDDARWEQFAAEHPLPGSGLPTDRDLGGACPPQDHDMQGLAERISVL
Outline: as §1

human kinome [26] = molecular target: human kinome (Homo sapiens, UniProt Q9H1R3); details: read-out: Percent Control
Chain of human kinome (Homo sapiens, UniProt Q9H1R3) (Q9H1R3 whole entry): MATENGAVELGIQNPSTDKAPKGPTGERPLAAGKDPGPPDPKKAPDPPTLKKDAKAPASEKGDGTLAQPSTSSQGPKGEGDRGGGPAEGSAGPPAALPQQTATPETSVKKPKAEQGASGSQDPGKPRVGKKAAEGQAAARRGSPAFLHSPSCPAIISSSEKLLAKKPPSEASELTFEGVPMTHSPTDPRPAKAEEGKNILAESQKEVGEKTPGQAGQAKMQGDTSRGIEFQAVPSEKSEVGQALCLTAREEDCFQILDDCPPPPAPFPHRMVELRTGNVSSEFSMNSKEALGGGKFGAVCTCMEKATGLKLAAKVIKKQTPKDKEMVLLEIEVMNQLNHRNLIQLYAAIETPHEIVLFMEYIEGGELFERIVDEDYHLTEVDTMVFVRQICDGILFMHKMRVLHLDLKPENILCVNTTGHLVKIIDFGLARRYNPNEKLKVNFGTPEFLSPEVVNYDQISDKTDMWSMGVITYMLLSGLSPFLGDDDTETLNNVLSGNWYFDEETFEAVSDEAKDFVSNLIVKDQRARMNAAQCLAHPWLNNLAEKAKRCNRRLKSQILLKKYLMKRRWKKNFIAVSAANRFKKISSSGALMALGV
Outline: as §1

human kinome [27] = molecular target: human kinome (Homo sapiens, UniProt Q9H2G2); details: kinase SLK (Entrez SLK); compound concentration 1000 nM; read-out: Percent Control
Outline: as §1

human kinome [28] = molecular target: human kinome (Homo sapiens, UniProt Q9H3Y6); details: kinase SRMS (Entrez SRMS); compound concentration 1000 nM; read-out: Percent Control
Outline: as §1

human kinome [29] = molecular target: human kinome (Homo sapiens, UniProt Q9UPZ9); details: ICK; 100 nM; read-out: Percent Control
Outline: as §1

COc1cc(F)ccc1-c1cc(Nc2cc(CS(C)(=N)=O)ccn2)ncc1F (stereo not shown) [VIP152]
remaining binding at 1 µM (human kinome [1]): 100% | remaining binding at 1 µM (human kinome [2]): 65% | remaining binding at 0.1 µM (human kinome [3]): 100% | remaining binding at 0.1 µM (human kinome [4]): 100% | remaining binding at 0.1 µM (human kinome [5]): 100% | remaining binding at 0.1 µM (human kinome [6]): 100% | remaining binding at 0.1 µM (human kinome [7]; PIM1, 100 nM): 100% | remaining binding at 1 µM (human kinome [7]; kinase PIM1 (Entrez PIM1), compound concentration 1000 nM): 100% | remaining binding at 0.1 µM (human kinome [8]): 100% | remaining binding at 0.1 µM (human kinome [9]): 100% | remaining binding at 0.1 µM (human kinome [10]; PKAC-beta (Entrez PRKACB), 100 nM): 100% | remaining binding at 1 µM (human kinome [10]; kinase PKAC-beta (Entrez PRKACB), compound concentration 1000 nM): 94% | remaining binding at 0.1 µM (human kinome [11]; JAK1(JH1domain-catalytic)): 87% | remaining binding at 0.1 µM (human kinome [11]; JAK1(JH2domain-pseudokinase)): 100% | remaining binding at 1 µM (human kinome [12]): 91% | remaining binding at 0.1 µM (human kinome [13]; PIK3CB, 100 nM): 100% | remaining binding at 1 µM (human kinome [13]; kinase PIK3CB (Entrez PIK3CB), compound concentration 1000 nM): 100% | remaining binding at 0.1 µM (human kinome [14]): 100% | remaining binding at 0.1 µM (human kinome [15]): 99% | remaining binding at 0.1 µM (human kinome [16]): 95% | remaining binding at 0.1 µM (human kinome [17]; PHKG1, 100 nM): 97% | remaining binding at 1 µM (human kinome [17]; kinase PHKG1 (Entrez PHKG1), compound concentration 1000 nM): 96% | remaining binding at 0.1 µM (human kinome [18]): 100% | remaining binding at 0.1 µM (human kinome [19]; NIM1 (Entrez MGC42105), 100 nM): 100% | remaining binding at 1 µM (human kinome [19]; kinase NIM1 (Entrez MGC42105), compound concentration 1000 nM): 86% | remaining binding at 1 µM (human kinome [20]): 97% | remaining binding at 0.1 µM (human kinome [21]): 100% | remaining binding at 0.1 µM (human kinome [22]): 89% | remaining binding at 0.1 µM (human kinome [23]): 100% | remaining binding at 1 µM (human kinome [24]): 60% | remaining binding at 0.1 µM (human kinome [25]; PRKD2, 100 nM): 90% | remaining binding at 1 µM (human kinome [25]; kinase PRKD2 (Entrez PRKD2), compound concentration 1000 nM): 88% | remaining binding at 0.1 µM (human kinome [26]; MYLK2, 100 nM): 100% | remaining binding at 1 µM (human kinome [26]; kinase MYLK2 (Entrez MYLK2), compound concentration 1000 nM): 91% | remaining binding at 1 µM (human kinome [27]): 16% | remaining binding at 1 µM (human kinome [28]): 83% | remaining binding at 0.1 µM (human kinome [29]): 95%
